Results as given in patent publication US8633245B2, “PAI-1 inhibitor” (Institute of Medicinal Molecular Design, Inc., priority 2008, dated 2014).

molecular target: T1, recombinant human PAI-1 (Homo sapiens, UniProt P05121); test: Test Example 2: human PAI-1 inhibitory activity (tPA fluorogenic substrate, pH 7.4 HEPES buffer); format: biochemical; conditions: human PAI-1; calculated from the inhibition rates
T1 construct: purchased Molecular Innovations, Inc
Protocol: 0.1 M HEPES, 0.1 M NaCl. 1 mM EDTA. 0.1% Polyethylene glycol 8,000 (Hampton Research Corporation),
2 mM Dimethyldecylphoshine oxide [Apo-10] (Fluka Corporation)

T1 sequence (P05121 24-402): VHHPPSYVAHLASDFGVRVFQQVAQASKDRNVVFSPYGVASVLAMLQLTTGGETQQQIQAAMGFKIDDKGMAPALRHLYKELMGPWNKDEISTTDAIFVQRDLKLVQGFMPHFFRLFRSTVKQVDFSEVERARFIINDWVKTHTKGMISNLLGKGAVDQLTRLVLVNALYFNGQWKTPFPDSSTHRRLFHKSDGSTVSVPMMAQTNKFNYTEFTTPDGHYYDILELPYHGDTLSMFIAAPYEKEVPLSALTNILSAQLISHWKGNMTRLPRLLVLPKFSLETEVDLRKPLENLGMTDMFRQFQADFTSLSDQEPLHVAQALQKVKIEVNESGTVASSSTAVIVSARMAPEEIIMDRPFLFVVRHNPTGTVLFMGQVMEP

Compound | IC50 [nM]
CC(C)(C)c1ccc(Oc2ccc(-c3ccc(OC(F)(F)F)cc3)cc2OCC(=O)O)cc1 [Compound 302] | 1700
CC(C)(C)c1ccc(COc2cc(-c3ccc(OC(F)(F)F)cc3)ccc2OCC(=O)O)cc1 [Compound 304] | 1230
CCCCC(Oc1cc(-c2ccc(OC(F)(F)F)cc2)ccc1OCCCCc1ccccc1)C(=O)O (centres unmarked) [Compound 306] | 880
CCCCC(Oc1cc(-c2ccc(OC(F)(F)F)cc2)ccc1Oc1ccccc1)C(=O)O (centres unmarked) [Compound 307] | 1530
CCCCC(Oc1cc(Oc2ccc(OC(F)(F)F)cc2)ccc1OCc1ccc(C(C)(C)C)cc1)C(=O)O (centres unmarked) [Compound 308] | 670
CCCCC(Oc1ccc(-c2ccc(OC(F)(F)F)cc2)cc1OCc1ccc(C(C)(C)C)cc1)C(=O)O (centres unmarked) [Compound 310] | 710
CCCCC(Oc1ccc(-c2ccc(OC(F)(F)F)cc2)cc1OCCCCc1ccccc1)C(=O)O (centres unmarked) [Compound 311] | 580
CCCCC(Oc1cc(Oc2ccc(OC(F)(F)F)cc2)ccc1Oc1ccc(C(C)(C)C)cc1)C(=O)O (centres unmarked) [Compound 312] | 530
CCCCC(Oc1cc(-c2ccc(OC(F)(F)F)cc2)ccc1OCc1ccc(C(C)(C)C)cc1)C(=O)O (centres unmarked) [Compound 313] | 980
CC(C)(C)c1ccc(Oc2ccc(-c3cccc(C(F)(F)F)c3)cc2OCC(=O)O)cc1 [Compound 314] | 1860
CC(C)(C)c1ccc(Oc2cc(-c3cccc(C(F)(F)F)c3)ccc2OCC(=O)O)cc1 [Compound 315] | 850
Cc1cccc(-c2ccc(Oc3ccc(C(C)(C)C)cc3)c(OCC(=O)O)c2)c1 [Compound 316] | 1780
Cc1cccc(-c2ccc(OCC(=O)O)c(Oc3ccc(C(C)(C)C)cc3)c2)c1 [Compound 319] | 2100
CCCCC(Oc1ccc(-c2cccc(C(F)(F)F)c2)cc1Oc1ccc(C(C)(C)C)cc1)C(=O)O (centres unmarked) [Compound 320] | 740
CCCCC(Oc1ccc(-c2cccc(C)c2)cc1Oc1ccc(C(C)(C)C)cc1)C(=O)O (centres unmarked) [Compound 321] | 600
CCCCCCC(Oc1cc(-c2ccc(OC(F)(F)F)cc2)ccc1Oc1ccccc1)C(=O)O (centres unmarked) [Compound 322] | 740
CCCCCCC(Oc1cc(-c2ccc(OC(F)(F)F)cc2)ccc1Oc1ccc(C(C)(C)C)cc1)C(=O)O (centres unmarked) [Compound 323] | 490
CCCCC(Oc1cc(-c2ccc(OC(F)(F)F)cc2)ccc1OCCCCc1ccc(F)cc1)C(=O)O (centres unmarked) [Compound 324] | 830
CCCCC(Oc1cc(-c2ccc(OC(F)(F)F)cc2)ccc1OCCCCc1ccc(Cl)cc1)C(=O)O (centres unmarked) [Compound 325] | 580

Further compounds by falling IC50, results first:

IC50 [nM] | Compound
1350 | CC(C)(Oc1c(Oc2ccc(C(C)(C)C)cc2)cccc1-c1ccc(OC(F)(F)F)cc1)C(=O)O [Compound 251]
940 | CCCCC(Oc1ccc(-c2ccc(OC(F)(F)F)cc2)cc1Oc1ccc(C(C)(C)C)cc1)C(=O)O (centres unmarked) [Compound 305]
660 | CCCCC(Oc1cc(Oc2ccc(OC(F)(F)F)cc2)ccc1OCCCCc1ccccc1)C(=O)O (centres unmarked) [Compound 309]
650 | CCCCC(Oc1cc(-c2cccc(C)c2)ccc1Oc1ccc(C(C)(C)C)cc1)C(=O)O (centres unmarked) [Compound 317]
580 | CCCCC(Oc1cc(-c2cccc(C(F)(F)F)c2)ccc1Oc1ccc(C(C)(C)C)cc1)C(=O)O (centres unmarked) [Compound 318]
540 | CCCCC(Oc1cc(-c2ccc(OC(F)(F)F)cc2)ccc1Oc1ccc(C(C)(C)C)cc1)C(=O)O (centres unmarked) [Compound 303]
470 | CCCCCOc1cc(-c2ccc(OC(F)(F)F)cc2)cc(OCc2ccc(C(C)(C)C)cc2)c1OCC(=O)O [Compound 301]
420 | CCCCCCC(Oc1cc(-c2ccc(OC(F)(F)F)cc2)ccc1Oc1ccc(C(F)(F)F)cc1)C(=O)O (centres unmarked) [Compound 327]
330 | CCCCCCC(Oc1cc(-c2ccc(OC(F)(F)F)cc2)ccc1Oc1ccc(OC(F)(F)F)cc1)C(=O)O (centres unmarked) [Compound 326]

same assay, conditions: read-out: Inhibition Rate of PAI-1 Activity (%)

Compound | inhibition at 3 µM [%]
CC(C)(C)c1ccc(Oc2cc(-c3cccc(C(F)(F)F)c3)ccc2OCC(=O)O)cc1 [Compound 315] | > 99
